From patent US20160145242A1, “PHENYLIMIDAZOLE DERIVATIVE, AND THERAPEUTIC MEDICINE OR PREVENTIVE MEDICINE FOR INFLAMMATORY DISEASE, ETC” (NIPPON SODA CO., LTD., priority 2013, published 2016)

Test system: mouse model of retinal light disorders
Assay: Retinal light disorder model test (ONL thickness)
Assay type: in vivo
Details: BALB/cCr male mouse, 30 mg/kg oral 30 minutes before 2 hours white light, eyes taken after 4 days
Experimental: (Retinal Light Disorder Model Test)
The usefulness (improvement rate with respect to retinal light disorders) of the compound of the invention was evaluated using a mouse model of retinal light disorders, generally used as a model of retinal light disorders, (Investigative Ophthalmology & Visual Science, 2002; vol. 43; pp. 1162 to 1167). Here, the improvement rate with respect to the retinal light disorders was calculated based on the thickness of an outer nuclear layer (hereinafter, referred to as “ONL”), which is strongly interfered especially by light application among a retinal cell layers, in a tissue specimen of a perpendicular surface of an eyeball.
Moreover, in the present test, the ONL of a light application group to which only a base was administered was degraded to 30% to 50% of a normal light group.
A test compound was dissolved or suspended in a solvent (1% (w/v) methyl cellulose aqueous solution) and then an administration liquid was prepared so that the test compound to be 30 mg/kg body weight. The dose was set to 10 ml/kg body weight.
A 5-week-old BALB/cCr-based male mouse (weight of approximately 20 g) was bred in a dark place for 48 hours. Subsequently, the test compound administration liquid was orally administered (30 mg/kg). After 30 minutes, […] of white light was continuously applied to the mouse for 2 hours. Next, the mouse was bred in a breeding room with 50 lux of light for 4 days.
An anesthetic (secobarbital sodium) was intraperitoneally administered to anesthetize the mouse and then the mouse was exsanguinated to die. The top portion of the right eyeball was marked with a thread and the eyeball was extracted. […]
The ONL thickness in the tissue specimen was measured for every 200 μm between the optic nerve papilla to where upwardly spaced by 1 mm from the optic nerve papilla using Lumina Vision. The area (AUC) from the optic nerve papilla to where upwardly spaced by 1 mm from the optic papilla in the graph was calculated as an ONL area. […]

| SMILES | ONL thickness improvement rate [%] |
| --- | --- |
| CC(=O)NC1CCN(c2ccc(N)c(-n3ccnc3)c2)C1 (centres unmarked) [Compound 3-1, 3-acetylamino-1-(4-amino-3-imidazole-1-yl-phenyl)pyrrolidine] | 87.2 |
| CC(=O)N1CCN(c2ccc([N+](=O)[O-])c(-n3ccnc3)c2)CC1 [2-imidazole-1-yl-4-(acetylpiperazine-1-yl)nitrobenzene, reference compound] | 29.2 |
